Read-outs that look alike come from different tables or passages of the source.
Key:
[1] = test system: 5-lipoxygenase; test: Ex vivo inhibition of 5-lipoxygenase (stimulated LTB4 synthesis in blood after dosing), rabbits; details: for inhibition of the stimulated ex vivo synthesis of leukotriene B₄ (LTB₄), result in words: rabbits, preliminary studies
Procedure: After administration of the test compound, the concentration of LTB₄ in the plasma was measured periodically and expressed as a percentage of the mean control value. The procedure used is described in Br. J. Pharmacol. 94, 528 (1988) and may be summarised as follows. Within 2 minutes of collection, duplicate samples (0.5ml) of blood were stimulated with the calcium ionophore A23187 (final concentration 15µg/ml) for 30 minutes at 37 °C. When incubation was complete, the samples were centrifuged (12,000G for 2 minutes) and the cell-free plasma removed. The plasma concentration of LTB₄ was then determined by specific radioimmunoassay. The compounds of Synthetic Examples 1 to 3 all inhibited the stimulated ex vivo synthesis of LTB₄ for several hours after their administration. The compound of Synthetic Example 1, for example, when administered orally to rabbits at a dose of 2mg/kg inhibited LTB₄ synthesis by more than 50% for a period of greater than 16 hours. The same compound when administered orally to rats at a dose of 10mg/kg inhibited LTB₄ synthesis by more than 50% for longer than 10 hours.

[2] = target: T1, 5-lipoxygenase (Rattus norvegicus, UniProt P12527); test: Ex vivo inhibition of 5-lipoxygenase (stimulated LTB4 synthesis in blood after dosing), rats; details: po, administered orally to rats, ex vivo A23187-stimulated blood, read-out: inhibited LTB₄ synthesis
T1 construct: endogenous in cells; host or cells: whole blood of dosed rats (blood leukocytes)
T1 sequence (P12527 1-673): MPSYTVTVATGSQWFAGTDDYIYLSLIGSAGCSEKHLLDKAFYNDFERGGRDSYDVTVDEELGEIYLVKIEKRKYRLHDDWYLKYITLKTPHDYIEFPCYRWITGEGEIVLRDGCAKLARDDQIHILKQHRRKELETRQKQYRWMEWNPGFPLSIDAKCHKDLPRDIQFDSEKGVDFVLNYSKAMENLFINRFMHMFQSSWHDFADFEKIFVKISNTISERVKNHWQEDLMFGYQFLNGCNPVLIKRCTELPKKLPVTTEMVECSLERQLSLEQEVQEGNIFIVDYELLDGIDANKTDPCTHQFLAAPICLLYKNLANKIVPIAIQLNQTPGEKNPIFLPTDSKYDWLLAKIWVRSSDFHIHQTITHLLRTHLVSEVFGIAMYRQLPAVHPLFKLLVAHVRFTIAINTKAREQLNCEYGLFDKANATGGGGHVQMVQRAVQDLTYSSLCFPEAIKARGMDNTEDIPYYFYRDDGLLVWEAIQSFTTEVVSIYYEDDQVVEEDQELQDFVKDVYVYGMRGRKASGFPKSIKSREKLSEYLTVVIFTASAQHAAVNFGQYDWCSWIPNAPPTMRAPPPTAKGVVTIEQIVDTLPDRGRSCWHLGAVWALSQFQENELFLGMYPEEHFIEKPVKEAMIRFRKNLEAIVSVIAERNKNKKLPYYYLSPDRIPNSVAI
Procedure: After administration of the test compound, the concentration of LTB₄ in the plasma was measured periodically and expressed as a percentage of the mean control value. The procedure used is described in Br. J. Pharmacol. 94, 528 (1988) and may be summarised as follows.
Within 2 minutes of collection, duplicate samples (0.5ml) of blood were stimulated with the calcium ionophore A23187 (final concentration 15µg/ml) for 30 minutes at 37 °C. When incubation was complete, the samples were centrifuged (12,000G for 2 minutes) and the cell-free plasma removed. The plasma concentration of LTB₄ was then determined by specific radioimmunoassay.
The compounds of Synthetic Examples 1 to 3 all inhibited the stimulated ex vivo synthesis of LTB₄ for several hours after their administration. The compound of Synthetic Example 1, for example, when administered orally to rabbits at a dose of 2mg/kg inhibited LTB₄ synthesis by more than 50% for a period of greater than 16 hours. The same compound when administered orally to rats at a dose of 10mg/kg inhibited LTB₄ synthesis by more than 50% for longer than 10 hours.

[3] = target: T2, 5-lipoxygenase (Homo sapiens, UniProt P09917); test: In vitro inhibition of 5-lipoxygenase, ionophore-stimulated whole human blood; type: cell-based; details: read-out: IC₅₀ Whole blood
T2 construct: The experiment was repeated using ionophore-stimulated whole human blood; endogenous in cells; host or cells: whole human blood (blood leukocytes)
T2 sequence (P09917 1-674): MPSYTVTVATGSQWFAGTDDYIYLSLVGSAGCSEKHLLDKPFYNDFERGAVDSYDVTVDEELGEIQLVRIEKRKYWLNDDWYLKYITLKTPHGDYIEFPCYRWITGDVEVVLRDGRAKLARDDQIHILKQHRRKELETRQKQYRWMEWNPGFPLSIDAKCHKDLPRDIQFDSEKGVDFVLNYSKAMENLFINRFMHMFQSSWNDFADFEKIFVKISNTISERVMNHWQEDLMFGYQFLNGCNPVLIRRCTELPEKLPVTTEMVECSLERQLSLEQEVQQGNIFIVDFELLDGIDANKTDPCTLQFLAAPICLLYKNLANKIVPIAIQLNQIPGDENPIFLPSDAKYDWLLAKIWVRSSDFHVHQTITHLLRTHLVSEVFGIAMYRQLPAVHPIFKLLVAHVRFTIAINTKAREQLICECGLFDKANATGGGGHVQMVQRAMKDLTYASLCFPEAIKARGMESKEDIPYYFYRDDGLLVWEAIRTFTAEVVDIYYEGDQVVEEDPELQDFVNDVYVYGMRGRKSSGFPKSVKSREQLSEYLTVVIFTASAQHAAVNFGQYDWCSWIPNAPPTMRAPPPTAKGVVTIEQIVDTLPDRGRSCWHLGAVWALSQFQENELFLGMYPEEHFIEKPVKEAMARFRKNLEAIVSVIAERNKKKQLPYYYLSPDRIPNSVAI
Procedure: Blood from normal aspirin-free volunteers was centrifuged to separate leukocytes from red cells and platelets. A solution of the test compound in DMSO (10µl, final concentration in the range 0.01 - 100µM) was added to cell homogenate (470µl) and the mixture incubated at 37 °C for 5 minutes. Solutions of arachidonic acid in methanol (250µM, 10µl, final concentration 5µM) and calcium chloride in water (100mM, 10µl, final concentration 2mM) were then added simultaneously and the mixture incubated at 37 °C for a further 5 minutes. The reaction was stopped by boiling. Radioimmunoassay was conducted for leukotriene B₄.
The experiment was repeated using ionophore-stimulated whole human blood.

[4] = Anti-oxidant activity: peroxyl radical scavenging, inhibition of peroxidation of linoleic acid
Procedure: As a measure of anti-oxidant activity, the peroxyl radical scavenging abilities of the compounds of the invention were determined by testing each compound's ability to inhibit the peroxidation of linoleic acid using the method described in Biochem. Pharm. 38, 1465 (1989).

[5] = test system: Male New Zealand White rabbits; test: Combination effects with an NSAID: antigen (ovalbumin)-induced arthritis of the knee joint in rabbits; type: in vivo; details: for proteoglycan loss from the cartilage, result in words / PROTEOGLYCAN LOSS: 14 days after antigen challenge; for mean leukocyte infiltrate in the synovial fluid, result in words / LEUKOCYTES (CELL NUMBER x 10⁶): 14 days after challenge; for PROTEOGLYCAN LOSS: articular cartilage of arthritic joint versus contralateral joint; for JOINT SWELLING: oral x3/24h: compound A 2mg/kg, indomethacin 1mg/kg; for reduced swelling compared to the vehicle-treated controls: from day 3 onwards, maximum reduction; for Lymphocytes / Total cells: histological evaluation of synovial lining; for LEUKOCYTES (CELL NUMBER x 10⁶): synovial fluid of arthritic joint
Procedure: Male New Zealand White rabbits (2.5 - 3kg) were immunised with intradermal injections of 4mg of ovalbumin in 1ml of Freund's complete adjuvant. Animals were reimmunised 14 days later in the same way. Five days after the second immunisation, arthritis was induced in the right knee joint by injecting 1ml of a sterile solution of ovalbumin (5mg/ml) into the joint cavity. Joint diameters were measured (on a randomised blind basis) with calipers at frequent intervals after antigen challenge. Animals were killed after 14 days and the joint space was washed with 1ml of saline and the resultant fluid was taken for total and differential leukocyte counts. Sensitised animals were randomly allocated to groups of 5-8. The compound of Synthetic Example 1, (E)-N-{1-Methyl-3-[3-(4-fluorophenoxy)phenyl]prop-2-en-1-yl}-N-hydroxyurea (compound A), was administered in suspension following 18h ball-milling in 0.25% Celacol as vehicle. The non-steroidal anti-inflammatory indomethacin was dissolved in a small volume of 1M Tris buffer pH8 and then made up to volume with 0.25% Celacol. Control animals received 0.25% Celacol. Each animal received an oral dose (approximately 5ml) of vehicle or drug 3 times every 24h. Doses were administered at 8.0am, 4.0pm and 12 midnight for 16-17 days commencing 1h before antigen challenge on day 0. All doses were given orally by stomach tube. The groups were as follows: 1-7: Controls (5ml 0.25% Celacol x3/24h) 8-14: 1mg/kg indomethacin dissolved in 0.25% Celacol x3/24h 15-21: 2mg/kg compound A suspended in 0.25% Celacol x3/24h 22-28: 2mg/kg compound A suspended in 0.25% Celacol plus 1mg/kg indomethacin dissolved in 0.25% Celacol Synovial lining tissue was removed from the joint, fixed, processed, cut and stained for microscopic examination. Histological scores were derived for the total mass of inflamed synovial lining, lymphocyte infiltration and polymorph content. The slides were read on a randomised blind basis. Articular cartilage was dissected from the ends of the femurs and digested with papain prior to measurement of the concentration of sulphated glycosaminoglycans (GAGs). The proteoglycan content was expressed as µg GAG/mg wet weight of cartilage and compared with values obtained with cartilage from the contralateral control joint.

[6] = test system: mice; type: in vivo
Procedure: The compound of Synthetic Example 1 was administered to mice per orally at doses of up to 300mg/kg and intraperitoneally at doses of up to 100mg/kg.

[7] = duration of arthritis 14 (days)

| SMILES | period for which LTB₄ synthesis was inhibited by more than 50% ([1]; administered orally to rabbits, 2mg/kg) | inhibited LTB₄ synthesis ([1]; administered orally to rabbits, 2mg/kg, ex vivo A23187-stimulated blood) | inhibition of the stimulated ex vivo synthesis of leukotriene B₄ (LTB₄), result in words [1] | inhibition at 10 mg/kg [2] | IC50 [3] | apparent rate constant (kAH) for scavenging peroxyl radicals [4] | proteoglycan loss from the cartilage, result in words [5] | mean leukocyte infiltrate in the synovial fluid, result in words [5] | PROTEOGLYCAN LOSS [5] | JOINT SWELLING ([5]; duration of arthritis 1 (day)) | JOINT SWELLING ([5]; duration of arthritis 2 (days)) | JOINT SWELLING ([5]; duration of arthritis 3 (days)) | JOINT SWELLING ([5]; duration of arthritis 8 (days)) | JOINT SWELLING [5, 7] | reduced swelling compared to the vehicle-treated controls [5] | Lymphocytes [5] | Total cells [5] | LEUKOCYTES (CELL NUMBER x 10⁶) [5] | deaths or serious deleterious effects ([6]; intraperitoneally, doses of up to 100mg/kg) | deaths or serious deleterious effects ([6]; per orally, doses of up to 300mg/kg) |
| --- | --- | --- | --- | --- | --- | --- | --- | --- | --- | --- | --- | --- | --- | --- | --- | --- | --- | --- | --- | --- |
| CC(/C=C/c1cccc(Oc2ccc(F)cc2)c1)N(O)C(N)=O (racemic) [Synthetic Example 1, (E)-N-{3-[3-(4-fluorophenoxy)phenyl]-1(R,S)-methylprop-2-en-1-yl}-N-hydroxyurea] | greater than 16 hours | more than 50% | effectively inhibited | > 50% | 150 nM | 0.408 | reduced proteoglycan loss | slightly reduced | 34% | 4.6 MM | 5.2 MM | 4.6 MM | 3.5 MM | 3.2 MM | up to 26% | 59 | 367 | 6.1 x 10⁶ | No deaths or serious deleterious effects | No deaths or serious deleterious effects |
| COc1ccc2c(c1)c(CC(=O)O)c(C)n2C(=O)c1ccc(Cl)cc1 [Indomethacin, indomethacin, reference compound] |  |  |  |  |  |  | reduced proteoglycan loss | slightly reduced | 38% | 4.3 MM | 4.5 MM | 3.5 MM | 2.6 MM | 2.0 MM | up to 53% | 51 | 365 | 7.3 x 10⁶ |  |  |
| C[C@H](/C=C/c1cccc(Oc2ccc(F)cc2)c1)N(O)C(N)=O [Synthetic Example 2, (E)-N-{3-[3-(4-fluorophenoxy)phenyl]-1(R)-methylprop-2-en-1-yl}-N-hydroxyurea] |  |  | effectively inhibited |  | 80 nM |  |  |  |  |  |  |  |  |  |  |  |  |  |  |  |
| C[C@@H](/C=C/c1cccc(Oc2ccc(F)cc2)c1)N(O)C(N)=O [Synthetic Example 3, (E)-N-{3-[3-(4-fluorophenoxy)phenyl]-1(S)-methylprop-2-en-1-yl}-N-hydroxyurea] |  |  | effectively inhibited |  | 80 nM |  |  |  |  |  |  |  |  |  |  |  |  |  |  |  |

— patent EP0384594A1, “Anti-inflammatory aryl derivatives” (THE WELLCOME FOUNDATION LIMITED, priority 1989, dated 1990)
